Inconclusive results and toxic doses are left out. The calls were made as follows: active = survival T/C of 150% or more; inactive = T/C below 125% in these data.
Tested on: CD2F1 mice, L1210 leukemia ip, survival T/C
Assay: NCI In Vivo Anticancer Drug Screen. Data for tumor model L1210 Leukemia (intraperitoneal) in CD2F1 (CDF1) mice
Details: higher = longer survival
How it was run: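 Activity against a transplanted murine tumor was judged by comparing the compound group with a vehicle group. The outcome in the treated animals was divided by that in the controls.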

[1] = endpoint: mean survival time, dose: 50.0 mg/kg/injection, schedule: Q01DX009 (ip), vehicle: saline with Tween-80
[2] = endpoint: mean survival time, dose: 100.0 mg/kg/injection, schedule: Q01DX009 (ip), vehicle: saline with Tween-80
[3] = endpoint: mean survival time, dose: 100.0 mg/kg/injection, schedule: Q04DX003 (ip), vehicle: saline with Tween-80
[4] = endpoint: mean survival time, dose: 200.0 mg/kg/injection, schedule: Q01DX009 (ip), vehicle: saline with Tween-80
[5] = endpoint: mean survival time, dose: 200.0 mg/kg/injection, schedule: Q04DX003 (ip), vehicle: saline with Tween-80
[6] = endpoint: mean survival time, dose: 400.0 mg/kg/injection, schedule: Q04DX003 (ip), vehicle: saline with Tween-80
[7] = endpoint: mean survival time, dose: 400.0 mg/kg/injection, schedule: Q01DX009 (ip), vehicle: saline with Tween-80

Measured: T/C

C=C(C)CNC1=C(C)C(=O)C2=C(C1=O)[C@H](COC(N)=O)[C@]1(OC)[C@@H]3N[C@@H]3CN21
inactive: endpoint: mean survival time, dose: 1.5 mg/kg/injection, schedule: Q01DX001 (ip), vehicle: distilled water + Tween-80 119 % of control | endpoint: mean survival time, dose: 3.0 mg/kg/injection, schedule: Q01DX001 (ip), vehicle: distilled water + Tween-80 117 % of control | endpoint: mean survival time, dose: 12.0 mg/kg/injection, schedule: Q01DX001 (ip), vehicle: distilled water + Tween-80 101 % of control

CC(=O)Nc1ccccc1OC(=O)c1ccccc1
inactive: [1] 97 % of control | [2] 97 % of control | [3] 101 % of control | [4] 97 % of control | [5] 95 % of control

c1cc2c(cc1CNC1=NCCO1)OCO2
inactive: [3] 98 % of control | [5] 105 % of control | [6] 98 % of control

O=C(CN1CC1)NCCCCCCCCNC(=O)CN1CC1
inactive: endpoint: mean survival time, dose: 4.4 mg/kg/injection, schedule: Q01DX009 (ip), vehicle: carboxymethylcellulose (CMC) 116 % of control | endpoint: mean survival time, dose: 6.6 mg/kg/injection, schedule: Q01DX009 (ip), vehicle: carboxymethylcellulose (CMC) 122 % of control | endpoint: mean survival time, dose: 22.0 mg/kg/injection, schedule: Q01DX001 (ip), vehicle: carboxymethylcellulose (CMC) 120 % of control | endpoint: mean survival time, dose: 33.0 mg/kg/injection, schedule: Q01DX001 (ip), vehicle: carboxymethylcellulose (CMC) 123 % of control

COc1ccc(C(C#N)Nc2ccccc2)cc1 (stereo not given)
inactive: [2] 106 % of control | endpoint: mean survival time, dose: 100.0 mg/kg/injection, schedule: Q04DX003 (ip), vehicle: saline sonified 97 % of control | [4] 104 % of control | endpoint: mean survival time, dose: 200.0 mg/kg/injection, schedule: Q04DX003 (ip), vehicle: saline sonified 89 % of control | [7] 103 % of control | endpoint: mean survival time, dose: 400.0 mg/kg/injection, schedule: Q04DX003 (ip), vehicle: saline sonified 103 % of control

CC(=O)CCC(=O)OCc1ccccc1
inactive: endpoint: mean survival time, dose: 25.0 mg/kg/injection, schedule: Q01DX009 (ip), vehicle: saline with Tween-80 102 % of control | [1] 96 % of control | [2] 108 % of control | [4] 101 % of control | [7] 98 % of control

O.O.O=C(O)c1ccccc1C(=O)O.[NH-]C1CCCCC1[NH-].[Pt+2]
inactive: endpoint: mean survival time, dose: 3.13 mg/kg/injection, schedule: Q04DX003 (ip), vehicle: dextrose 109 % of control | endpoint: mean survival time, dose: 6.25 mg/kg/injection, schedule: Q04DX003 (ip), vehicle: dextrose 106 % of control | endpoint: mean survival time, dose: 25.0 mg/kg/injection, schedule: Q04DX003 (ip), vehicle: dextrose 106 % of control | endpoint: mean survival time, dose: 50.0 mg/kg/injection, schedule: Q04DX003 (ip), vehicle: dextrose 95 % of control

O=c1[nH]c(=S)c(SCc2ccccc2)nn1C1OC(COP(=O)(O)O)C(O)C1O (stereo not given)
inactive: endpoint: median survival time, dose: 5.63 mg/kg/injection, schedule: Q01DX005 (ip), vehicle: water 98 % of control | endpoint: median survival time, dose: 11.25 mg/kg/injection, schedule: Q01DX005 (ip), vehicle: water 98 % of control | endpoint: median survival time, dose: 22.5 mg/kg/injection, schedule: Q01DX005 (ip), vehicle: water 102 % of control | endpoint: median survival time, dose: 45.0 mg/kg/injection, schedule: Q01DX005 (ip), vehicle: water 105 % of control | endpoint: median survival time, dose: 90.0 mg/kg/injection, schedule: Q01DX005 (ip), vehicle: water 103 % of control

COC1CCCC[CH]1[Hg][Br] (stereo not given)
inactive: endpoint: mean survival time, dose: 3.13 mg/kg/injection, schedule: Q01DX009 (ip), vehicle: saline with Tween-80 102 % of control

CC1=CC=CC2=NC(=O)CCN12
inactive: [2] 104 % of control | [3] 105 % of control | [4] 106 % of control | [5] 102 % of control | [7] 103 % of control | [6] 103 % of control

O=C1OC(=O)N2N=CC=CC12 (stereo not given)
inactive: endpoint: mean survival time, dose: 100.0 mg/kg/injection, schedule: Q01DX001 (ip), vehicle: saline sonified 96 % of control | endpoint: mean survival time, dose: 200.0 mg/kg/injection, schedule: Q01DX001 (ip), vehicle: saline sonified 98 % of control | endpoint: mean survival time, dose: 400.0 mg/kg/injection, schedule: Q01DX001 (ip), vehicle: saline sonified 94 % of control

Source: PubChem BioAssay AID256 (DTP/NCI, 2004)
